Molecular target: T1, NTCP (Homo sapiens, UniProt Q14973)
T1 sequence (Q14973 1-349): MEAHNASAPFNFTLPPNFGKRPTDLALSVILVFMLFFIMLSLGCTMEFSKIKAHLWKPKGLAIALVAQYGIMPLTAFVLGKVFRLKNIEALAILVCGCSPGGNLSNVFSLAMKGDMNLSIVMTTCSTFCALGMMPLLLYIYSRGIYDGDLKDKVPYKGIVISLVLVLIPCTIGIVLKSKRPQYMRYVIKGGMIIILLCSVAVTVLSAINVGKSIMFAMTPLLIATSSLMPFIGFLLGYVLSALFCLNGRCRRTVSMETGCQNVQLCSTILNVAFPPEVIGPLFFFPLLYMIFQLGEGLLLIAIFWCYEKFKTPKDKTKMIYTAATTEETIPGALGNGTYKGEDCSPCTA
Assay: [3H]-TCA uptake assay (NTCP inhibition)
Format: cell-based
How it was run: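 Read-out is liquid scintillation counting of Triton X-100 lysates after 15 min, 37° C uptake of 1 μM [3H]-taurocholate in Na+ Ringer's buffer (145 mM Na). Beforehand, PTH and HepG2-NTCP cells had 24 h in PMM for NTCP induction and 2 h of compound or DMSO treatment.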

[1] = IC50, given as a range, marked * (asterisk not explained)
[2] = given as a range, assay not given
[3] = IC50, given as a range, assay not given

SMILES | IC50 [1] | IC50 [2] | other results
CCC1NC(=O)C(C2OC(Oc3ccc(C4CCCCC4)cc3)CC2C)N(C)C(=O)C(C(C)C)N(C)C(=O)C(CC(C)C)N(C)C(=O)C(CC(C)C)N(C)C(=O)C(C)NC(=O)C(C)NC(=O)C(CC(C)C)N(C)C(=O)C(C(C)C)NC(=O)C(CC(C)C)N(C)C(=O)CN(C)C1=O (centres unmarked) [Compound 9A-o] | 1000 to 100000 nM |  | 
CCC1NC(=O)C(C2OC(SCc3ccc(Cl)c(Cl)c3)CC2C)N(C)C(=O)C(C(C)C)N(C)C(=O)C(CC(C)C)N(C)C(=O)C(CC(C)C)N(C)C(=O)C(C)NC(=O)C(C)NC(=O)C(CC(C)C)N(C)C(=O)C(C(C)C)NC(=O)C(CC(C)C)N(C)C(=O)CN(C)C1=O (centres unmarked) [Compound 94A-s] | 1000 to 100000 nM |  | 
CCOc1cc(SC2CC(C)C(C3C(=O)NC(CC)C(=O)N(C)CC(=O)N(C)C(CC(C)C)C(=O)NC(C(C)C)C(=O)N(C)C(CC(C)C)C(=O)NC(C)C(=O)NC(C)C(=O)N(C)C(CC(C)C)C(=O)N(C)C(CC(C)C)C(=O)N(C)C(C(C)C)C(=O)N3C)O2)ccc1Cl [Compound 41A, [2-((2R,3R)-5-(4-chloro-3-ethoxyphenylthio)-3-methyltetrahydrofuran-2-yl)-2-(methylamino)acetic acid]^1-cyclosporin A] |  | 1 to 1000 nM | 
CCC1NC(=O)C(C2OC(SCc3cc(Cl)c(Cl)cc3Cl)CC2C)N(C)C(=O)C(C(C)C)N(C)C(=O)C(CC(C)C)N(C)C(=O)C(CC(C)C)N(C)C(=O)C(C)NC(=O)C(C)NC(=O)C(CC(C)C)N(C)C(=O)C(C(C)C)NC(=O)C(CC(C)C)N(C)C(=O)CN(C)C1=O (centres unmarked) [Compound 104-s] | 1000 to 100000 nM |  | 
CCC1NC(=O)C(C2OC(SCc3ccc(Cl)cc3Cl)CC2C)N(C)C(=O)C(C(C)C)N(C)C(=O)C(CC(C)C)N(C)C(=O)C(CC(C)C)N(C)C(=O)C(C)NC(=O)C(C)NC(=O)C(CC(C)C)N(C)C(=O)C(C(C)C)NC(=O)C(CC(C)C)N(C)C(=O)CN(C)C1=O (centres unmarked) [Compound 89A-s] | 1000 to 100000 nM |  | 
CCC1NC(=O)C(C2OC(Oc3cccc(OCc4ccccc4)c3)CC2C)N(C)C(=O)C(C(C)C)N(C)C(=O)C(CC(C)C)N(C)C(=O)C(CC(C)C)N(C)C(=O)C(C)NC(=O)C(C)NC(=O)C(CC(C)C)N(C)C(=O)C(C(C)C)NC(=O)C(CC(C)C)N(C)C(=O)CN(C)C1=O (single isomer, unassigned) [Compound 12B-o] |  | 1 to 1000 nM | 
CCC1NC(=O)C(C2OC(OCc3cccc(S(=O)(=O)OCC(C)C)c3)CC2C)N(C)C(=O)C(C(C)C)N(C)C(=O)C(CC(C)C)N(C)C(=O)C(CC(C)C)N(C)C(=O)C(C)NC(=O)C(C)NC(=O)C(CC(C)C)N(C)C(=O)C(C(C)C)NC(=O)C(CC(C)C)N(C)C(=O)CN(C)C1=O [Compound 75A, [2-((2R,3R)-5-(3-(isobutoxysulfonyl)benzyloxy)-3-methyltetrahydrofuran-2-yl)-2-(methylamino)acetic acid]^1-cyclosporin A] |  | 1 to 1000 nM | 
CCCCc1ccc(SC2CC(C)C(C3C(=O)NC(CC)C(=O)N(C)CC(=O)N(C)C(CC(C)C)C(=O)NC(C(C)C)C(=O)N(C)C(CC(C)C)C(=O)NC(C)C(=O)NC(C)C(=O)N(C)C(CC(C)C)C(=O)N(C)C(CC(C)C)C(=O)N(C)C(C(C)C)C(=O)N3C)O2)cc1 [Compound 8A, [2-((2R,3R)-5-(4-butylphenylthio)-3-methyltetrahydrofuran-2-yl)-2-(methylamino)acetic acid]^1-cyclosporin A] |  | 1 to 1000 nM | 
CCC1NC(=O)C(C2OC(Oc3ccc(Cl)c(OCCO)c3)CC2C)N(C)C(=O)C(C(C)C)N(C)C(=O)C(CC(C)C)N(C)C(=O)C(CC(C)C)N(C)C(=O)C(C)NC(=O)C(C)NC(=O)C(CC(C)C)N(C)C(=O)C(C(C)C)NC(=O)C(CC(C)C)N(C)C(=O)CN(C)C1=O (centres unmarked) [Compound 46A-o] | 1000 to 100000 nM |  | 
CCC1NC(=O)C(C2OC(OCc3ccc4c(c3)OCO4)CC2C)N(C)C(=O)C(C(C)C)N(C)C(=O)C(CC(C)C)N(C)C(=O)C(CC(C)C)N(C)C(=O)C(C)NC(=O)C(C)NC(=O)C(CC(C)C)N(C)C(=O)C(C(C)C)NC(=O)C(CC(C)C)N(C)C(=O)CN(C)C1=O [Compound 100A, [2-((2R,3R)-5-(benzo[d][1,3]dioxol-5-ylmethoxy)-3-methyltetrahydrofuran-2-yl)-2-(methylamino)acetic acid]^1-cyclosporin A] |  | 1 to 1000 nM | 
CCC1NC(=O)C(C2OC(Oc3ccccc3)CC2C)N(C)C(=O)C(C(C)C)N(C)C(=O)C(CC(C)C)N(C)C(=O)C(CC(C)C)N(C)C(=O)C(C)NC(=O)C(C)NC(=O)C(CC(C)C)N(C)C(=O)C(C(C)C)NC(=O)C(CC(C)C)N(C)C(=O)CN(C)C1=O (centres unmarked) [Compound 1B-o] | 1000 to 100000 nM |  | 
CCC1NC(=O)C(C2OC(Sc3cccc(OCCc4ccccc4)c3)CC2C)N(C)C(=O)C(C(C)C)N(C)C(=O)C(CC(C)C)N(C)C(=O)C(CC(C)C)N(C)C(=O)C(C)NC(=O)C(C)NC(=O)C(CC(C)C)N(C)C(=O)C(C(C)C)NC(=O)C(CC(C)C)N(C)C(=O)CN(C)C1=O [Compound 35A, [2-((2R,3R)-3-methyl-5-(3-phenethoxyphenylthio)tetrahydrofuran-2-yl)-2-(methylamino)acetic acid]^1-cyclosporin A] |  | 1 to 1000 nM | 
CCC1NC(=O)C(C2OC(SCc3cccc(S(=O)(=O)OCC(C)C)c3)CC2C)N(C)C(=O)C(C(C)C)N(C)C(=O)C(CC(C)C)N(C)C(=O)C(CC(C)C)N(C)C(=O)C(C)NC(=O)C(C)NC(=O)C(CC(C)C)N(C)C(=O)C(C(C)C)NC(=O)C(CC(C)C)N(C)C(=O)CN(C)C1=O (centres unmarked) [Compound 75A-s] | 1000 to 100000 nM |  | 
CCC1NC(=O)C(C2OC(OC(C)c3ccccc3)CC2C)N(C)C(=O)C(C(C)C)N(C)C(=O)C(CC(C)C)N(C)C(=O)C(CC(C)C)N(C)C(=O)C(C)NC(=O)C(C)NC(=O)C(CC(C)C)N(C)C(=O)C(C(C)C)NC(=O)C(CC(C)C)N(C)C(=O)CN(C)C1=O (single isomer, unassigned) [Compound 79A] |  | 1 to 1000 nM | 
CCC1NC(=O)C(C2OC(Sc3ccc(NC(C)=O)cc3)CC2C)N(C)C(=O)C(C(C)C)N(C)C(=O)C(CC(C)C)N(C)C(=O)C(CC(C)C)N(C)C(=O)C(C)NC(=O)C(C)NC(=O)C(CC(C)C)N(C)C(=O)C(C(C)C)NC(=O)C(CC(C)C)N(C)C(=O)CN(C)C1=O [Compound 4A, [2-((2R,3R)-5-(4-acetamidophenylthio)-3-methyltetrahydrofuran-2-yl)-2-(methylamino)acetic acid]^1-cyclosporin A] |  |  | IC50 [3]: 1000 to 10000 nM
CCC1NC(=O)C(C2OC(Sc3cccc(OCc4ccncc4)c3)CC2C)N(C)C(=O)C(C(C)C)N(C)C(=O)C(CC(C)C)N(C)C(=O)C(CC(C)C)N(C)C(=O)C(C)NC(=O)C(C)NC(=O)C(CC(C)C)N(C)C(=O)C(C(C)C)NC(=O)C(CC(C)C)N(C)C(=O)CN(C)C1=O [Compound 54A, [2-((2,3R)-3-methyl-5-(3-(pyridin-4-ylmethoxy)phenylthio)tetrahydrofuran-2-yl)-2-(methylamino)acetic acid]^1-cyclosporin A] |  | 1 to 1000 nM | 
CCC1NC(=O)C(C2OC(OCc3cccc(S(=O)(=O)NCC(C)C)c3)CC2C)N(C)C(=O)C(C(C)C)N(C)C(=O)C(CC(C)C)N(C)C(=O)C(CC(C)C)N(C)C(=O)C(C)NC(=O)C(C)NC(=O)C(CC(C)C)N(C)C(=O)C(C(C)C)NC(=O)C(CC(C)C)N(C)C(=O)CN(C)C1=O [Compound 76A, [2-((2R,3R)-5-(3-(N-isobutylsulfamoyl)benzyloxy)-3-methyltetrahydrofuran-2-yl)-2-(methylamino)acetic acid]^1-cyclosporin A] |  |  | IC50 [3]: 1000 to 10000 nM
